Test results published in PubChem BioAssay (NCI).
“And” between values parts separate entries of the source, which are not always exact repeats. Equal values may be shown once.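 Dose response: 5 concentrations. Exposure: 48 h. Format: 96-well plates. Endpoint: linear interpolation; highest concentration if not reached. GI50 marks 50% less growth. At the TGI there is no net growth.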

What was measured:
Experiment in all cases: growth of human tumour cells (NCI), 48 h
U251 CNS = test system: U251 CNS
HOP-92 NSCLC = test system: HOP-92 NSCLC
NCI-H460 lung = test system: NCI-H460 lung
SF-539 CNS = test system: SF-539 CNS
HT29 colon = test system: HT29 colon
SN12C renal = test system: SN12C renal
OVCAR-5 ovarian = test system: OVCAR-5 ovarian
A549 NSCLC = test system: A549 NSCLC
NCI-H23 lung = test system: NCI-H23 lung
OVCAR-4 ovarian = test system: OVCAR-4 ovarian

Compound | GI50 (U251 CNS) | TGI (U251 CNS) | GI50 (HOP-92 NSCLC) | TGI (HOP-92 NSCLC) | GI50 (NCI-H460 lung) | TGI (NCI-H460 lung) | GI50 (SF-539 CNS) | TGI (SF-539 CNS) | GI50 (HT29 colon) | TGI (HT29 colon) | GI50 (SN12C renal) | TGI (SN12C renal) | GI50 (OVCAR-5 ovarian) | TGI (OVCAR-5 ovarian) | GI50 (A549 NSCLC) | TGI (A549 NSCLC) | GI50 (NCI-H23 lung) | TGI (NCI-H23 lung) | GI50 (OVCAR-4 ovarian) | TGI (OVCAR-4 ovarian)
CC(=O)Nc1ccc2c(c1)oc(=O)c1cc(NC(C)=O)ccc12 | > 100 µM | > 100 µM | 29.6 µM | > 100 µM | > 100 µM | > 100 µM | > 100 µM | > 100 µM | 54 µM | > 100 µM | 29.6 µM | > 100 µM | > 100 µM | > 100 µM | > 100 µM | > 100 µM | > 100 µM | > 100 µM | > 100 µM | > 100 µM
O=C(CCl)N1c2ccccc2Sc2c1ccc1ccccc21 | 1.65 µM | 3.13 µM | 1.04 µM | 5.32 µM | 2.11 µM | 4.34 µM | 2.08 µM | 4.81 µM | 3.58 µM | 15.5 µM | 1.79 µM | 3.27 µM | 2.16 µM | 5.07 µM | 9.52 µM | 30.3 µM | 2.2 µM | 5.11 µM | 2.56 µM | 6.18 µM
CCCCCCCCCCCCCCCCCCCCCC(=O)Nc1ccn(C2OC(CO)C(O)C2O)c(=O)n1 (stereo not given) | – | > 100 µM | – | > 100 µM | – | > 100 µM | – | > 100 µM | – | > 100 µM | – | > 100 µM | – | > 100 µM | – | > 100 µM | – | > 100 µM | – | > 100 µM
COc1cc([C@@H]2c3cc4c(cc3[C@@H](NC(=O)c3ccccc3)C3COC(=O)[C@@H]32)OCO4)cc(OC)c1O (stereo not given in full) | – | 13.5 µM | – | 87.9 µM | – | 15.2 µM | – | 24.8 µM | – | 22 µM | – | 9.81 µM | – | > 100 µM | – | 16.6 µM | – | 10.7 µM | – | > 100 µM
CC1OC2CC(=O)OC2C2=C1C(=O)c1c(O)c3c(c(O)c1C2=O)C1CC(O)C3(O)C(C)O1 (stereo not given) | 0.296 µM | 1.07 µM | 1.06 µM | 3.56 µM | 0.784 µM | 3.14 µM | 0.458 µM | 1.37 µM | 0.229 µM | 1.14 µM | 0.211 µM | 0.539 µM | 0.292 µM | 0.879 µM | 0.869 µM | 7.74 µM | 0.414 µM | 1.55 µM | 0.381 µM | 1.23 µM
COc1ccc(C2S/C(=C\c3ccc(O)cc3)C(=O)N2NC(=O)Cc2ccccc2)cc1 (stereo not given) | – | > 100 µM | – | > 100 µM | – | > 100 µM | – | > 100 µM | – | > 100 µM | – | > 100 µM | – | > 100 µM | – | > 100 µM | – | > 100 µM | – | > 100 µM
CCCCCCCCCCCCCCCC(=O)OCC1OC(n2c(O)c(N=NC(N)=S)c3ccc([N+](=O)[O-])cc32)C(OC(C)=O)C1OC(C)=O (stereo not given) | – | > 100 µM | – | > 100 µM | – | > 100 µM | – | > 100 µM | – | > 100 µM | – | > 100 µM | – | > 100 µM | – | > 100 µM | – | > 100 µM | – | > 100 µM
CC(C)CC1=[N+]=C(NC#N)N=C(CCC(=O)Nc2ccccc2[N+](=O)[O-])C1 | – | > 100 µM | – | > 100 µM | – | > 100 µM | – | > 100 µM | – | > 100 µM | – | > 100 µM | – | > 100 µM | – | > 100 µM | – | > 100 µM | – | > 100 µM
Cc1cc(C(C#N)c2ccc(Cl)cc2)c(Cl)cc1NC(=O)c1cc(I)cc(I)c1O (stereo not given) | 6.1 µM and 16 µM | 33.4 µM and 38.2 µM | 1.47 µM | 4.65 µM | 4.87 µM and 19.5 µM | 28.5 µM and 46.3 µM | 8.18 µM and 13.2 µM | 23.2 µM and 32.4 µM | 7.23 µM and 18.6 µM | 22.6 µM and 40.4 µM | 3.57 µM and 15.4 µM | 35.6 µM and 39.2 µM | 11 µM and 15.5 µM | 29.2 µM and 32 µM | 13.6 µM and 21.3 µM | 56.3 µM and 44.5 µM | 6.2 µM and 14.6 µM | 21 µM and 37.3 µM | 16.4 µM and 17.5 µM | 51.4 µM and 47.9 µM
C[C@H]1[C@H](C)CC[C@]2(C(=O)O)CC[C@]3(C)C(=CC[C@@H]4[C@@]5(C)C/C(=C/c6cccnc6)[C@H](O)C(C)(C)[C@@H]5CC[C@]43C)[C@H]12 | 10.9 µM | 27.8 µM | 13.8 µM | 67.7 µM | 8.88 µM | 26.6 µM | 15.6 µM | 36.3 µM | 14.4 µM | 33.9 µM | 18.1 µM | 97.3 µM | 20.9 µM | 64.8 µM | 5.27 µM | 62.4 µM | 17.4 µM | > 100 µM | 43 µM | > 100 µM
